System: patients with PoPH
Test: PORTICO safety: treatment-emergent AEs, SAEs, AESIs, deaths, discontinuations
Assay type: in vivo
Excerpt: For the evaluation of treatment-emergent safety endpoints in the DB phase, the observation period for each individual subject started at the time of the first administration of macitentan or placebo and ended with the start of OL treatment or 30 days after DB treatment discontinuation (whichever occurred first). The safety variables listed below apply to the DB treatment-emergent period and the macitentan treatment-emergent period. The DB treatment-emergent period was defined as the period from the DB treatment start date up to the EOT-DB+30 days or to the EOT-DB for patients entering OL. The macitentan treatment-emergent period was defined as the period from the first intake of macitentan up to end of macitentan treatment (EOMT)+30 days. EOMT was defined as EOT-DB (for patient who received macitentan only in the DB period) or EOT-OL when applicable. For patients entering OLE, the EOMT is EOT-OL. • Treatment-emergent AEs • Treatment-emergent deaths • Treatment-emergent serious adverse events (SAEs) • AEs leading to premature discontinuation of study treatment • Occurrence of post-baseline LFT (ALT and/or AST) abnormalities, classified as: • ≥3×ULN; • ≥5×ULN; • ≥8×ULN; • ≥3×ULN and <5×ULN; • […] and <8×ULN. • Occurrence of post-baseline ALT and/or AST abnormality 3×ULN and concomitant (i.e., at the same time) total bilirubin ≥2×ULN • Occurrence of post-baseline ALT and/or AST abnormality ≥3×ULN and concomitant (i.e., at the same time) total bilirubin ≥2×ULN and increased as compared to baseline • Occurrence of hemoglobin abnormalities, classified as: • ≤80 g/L, • >80 and ≤100 g/L, • decrease from baseline ≥20 g/L and <50 g/L, • decrease from baseline ≥50 g/L, • <100 g/L and concurrent (i.e., at the same time) decrease from baseline ≥20 g/L. • Other treatment-emergent marked laboratory abnormalities • Change from baseline/macitentan baseline to EOT-DB/EOMT in vital signs • Change from baseline/macitentan baseline to EOT-DB/EOMT in laboratory variables • Change from baseline/macitentan baseline to EOT-DB/EOMT in Child-Pugh classification • Change from baseline/macitentan baseline to EOT-DB/EOMT in MELD score
(i) Adverse events: All AEs occurring after study start (i.e., signing of informed consent) and up to 30 days after study treatment discontinuation were required to be recorded. AEs still ongoing more than 30 days after study treatment discontinuation were required to be followed up until they were no longer considered clinically relevant.
(ii) Serious adverse events, including associated with study design or protocol-mandated procedures: During the screening period, all SAEs occurring after study start (i.e., signing of informed consent) were required to be recorded (whether considered associated or not associated to study design or study-mandated procedures). All SAEs, regardless of investigator-attributed causal relationship, occurring during the treatment period up to the end of the 30-day follow up period, were required to be reported. SAEs still ongoing at the EOS visit were required to be followed up until resolution or stabilization, or until the event outcome was provided, e.g., death. New SAEs occurring after the 30-day follow-up period were required to be reported within 24 hours.
In addition, the following adverse events of special interest (AESIs) were analyzed: • “Edema and fluid retention”
Any treatment-emergent AE with PT listed in the Standardised MedDRA Query (SMQ) “Haemodynamic oedema, effusions and fluid overload (SMQ)” or with PT equal to “Pulmonary congestion” defined in the latest available MedDRA version, with the exception of PTs containing “site”. • “Anemia”

[1] = DB phase, Safety set, 10 mg, N = 43
[2] = DB phase, macitentan group (6 patients)
[3] = DB phase, macitentan group, 7 patients
[4] = OL phase, Macitentan treated set, N = 84
[5] = macitentan DB + OL phase, Macitentan treated set, N = 84

CCCNS(=O)(=O)Nc1ncnc(OCCOc2ncc(Br)cn2)c1-c1ccc(Br)cc1 [macitentan, N-[5-(4-Bromophenyl)-6-[2-[(5-bromo-2-pyrimidinyl)oxy]ethoxy]-4-pyrimidinyl]-N′-propylsulfamide]
AEs that occurred more frequently than in the placebo group (DB phase): peripheral edema/peripheral swelling, bronchitis and decreased hemoglobin/anemia
Deaths (DB phase): no deaths
AE leading to premature discontinuation of study treatment, Alveolitis [1]: 1 (2.3) n (%)
AE leading to premature discontinuation of study treatment, Anaemia [1]: 1 (2.3) n (%)
AE leading to premature discontinuation of study treatment, Hypersensitivity [1]: 1 (2.3) n (%)
AE leading to premature discontinuation of study treatment, Pulmonary arterial hypertension [1]: 1 (2.3) n (%)
AE of special interest Anemia, Pancytopenia [1]: 0 n (%)
AE of special interest Hepatic disorders, Blood bilirubin increased [1]: 0 n (%)
AE of special interest Hepatic disorders, Gamma-glutamyltransferase increased [1]: 0 n (%)
Subjects with at least one AE [1]: 36 (83.7) n (%)
Subjects with at least one AE leading to study drug discontinuation [1]: 4 (9.3) n (%)
Subjects with at least one Drug-Related AE [1]: 19 (44.2) n (%)
Subjects with at least one Drug-Related serious AE [1]: 5 (11.6) n (%)
Subjects with at least one Fatal serious AE [1]: 0 n (%)
Subjects with at least one Serious AE [1]: 9 (20.9) n (%)
Subjects with at least one Severe AE [1]: 7 (16.3) n (%)
Treatment-emergent AE, Abdominal pain [1]: 2 (4.7) n (%)
Treatment-emergent AE, Acute kidney injury [1]: 2 (4.7) n (%)
Treatment-emergent AE, Back pain [1]: 2 (4.7) n (%)
Treatment-emergent AE, Bronchitis [1]: 4 (9.3) n (%)
Treatment-emergent AE, Cough [1]: 0 n (%)
Treatment-emergent AE, Diarrhoea [1]: 1 (2.3) n (%)
Treatment-emergent AE, Dizziness [1]: 2 (4.7) n (%)
Treatment-emergent AE, Dry mouth [1]: 1 (2.3) n (%)
Treatment-emergent AE, Dyspnoea [1]: 1 (2.3) n (%)
Treatment-emergent AE, Fall [1]: 2 (4.7) n (%)
Treatment-emergent AE, Foot fracture [1]: 1 (2.3) n (%)
Treatment-emergent AE, Headache [1]: 7 (16.3) n (%)
Treatment-emergent AE, Hypokalaemia [1]: 2 (4.7) n (%)
Treatment-emergent AE, Hypotension [1]: 2 (4.7) n (%)
Treatment-emergent AE, Muscle spasms [1]: 0 n (%)
Treatment-emergent AE, Nausea [1]: 1 (2.3) n (%)
Treatment-emergent AE, Pain in extremity [1]: 2 (4.7) n (%)
Treatment-emergent AE, Presyncope [1]: 2 (4.7) n (%)
Treatment-emergent AE, Rhinitis [1]: 2 (4.7) n (%)
Treatment-emergent AE, Right ventricular failure [1]: 3 (7.0) n (%)
Treatment-emergent AE, Tachycardia [1]: 2 (4.7) n (%)
Treatment-emergent AE, Urinary tract infection [1]: 2 (4.7) n (%)
Treatment-emergent AE, Viral upper respiratory tract infection [1]: 2 (4.7) n (%)
Treatment-emergent SAE, Acute kidney injury [1]: 1 (2.3) n (%)
Treatment-emergent SAE, Alveolitis [1]: 1 (2.3) n (%)
Treatment-emergent SAE, Aneurysm repair [1]: 0 n (%)
Treatment-emergent SAE, Ascites [1]: 1 (2.3) n (%)
Treatment-emergent SAE, Asthma [1]: 1 (2.3) n (%)
Treatment-emergent SAE, Atrial fibrillation [1]: 1 (2.3) n (%)
Treatment-emergent SAE, Fluid overload [1]: 1 (2.3) n (%)
Treatment-emergent SAE, Haemoptysis [1]: 1 (2.3) n (%)
Treatment-emergent SAE, Hepatic encephalopathy [1]: 1 (2.3) n (%)
Treatment-emergent SAE, Hepatocellular carcinoma [1]: 1 (2.3) n (%)
Treatment-emergent SAE, Hypersensitivity [1]: 1 (2.3) n (%)
Treatment-emergent SAE, Ileus [1]: 1 (2.3) n (%)
Treatment-emergent SAE, Left ventricular failure [1]: 1 (2.3) n (%)
Treatment-emergent SAE, Localised infection [1]: 0 n (%)
Treatment-emergent SAE, Localised oedema [1]: 1 (2.3) n (%)
Treatment-emergent SAE, Lung infection [1]: 1 (2.3) n (%)
Treatment-emergent SAE, Oedema peripheral [1]: 1 (2.3) n (%)
Treatment-emergent SAE, Presyncope [1]: 1 (2.3) n (%)
Treatment-emergent SAE, Pulmonary arterial hypertension [1]: 1 (2.3) n (%)
Treatment-emergent SAE, Pulmonary toxicity [1]: 1 (2.3) n (%)
Treatment-emergent SAE, Right ventricular failure [1]: 2 (4.7) n (%)
Treatment-emergent SAE, Syncope [1]: 1 (2.3) n (%)
Treatment-emergent SAE, Troponin I increased [1]: 1 (2.3) n (%)
Treatment-emergent SAE, Urosepsis [1]: 1 (2.3) n (%)
Treatment-emergent SAE, Vascular procedure complication [1]: 0 n (%)
Anemia AE cases leading to discontinuation of study treatment (DB phase, macitentan group): 1 case
Edema/fluid retention SAEs (in one patient: peripheral edema, localized edema, fluid overload) (DB phase, macitentan group): 3 SAEs
Patients who discontinued treatment due to AEs (DB phase, macitentan group): 4 patients
Patients who had SAEs (DB phase, macitentan group): 20.9%
Patients with hepatic disorder SAEs (DB phase, macitentan group): 3 patients
Patients with anemia AEs [2]: 14.0%
Patients with hepatic disorder AEs [2]: 14.0%
Patients with edema and fluid retention AEs (DB phase, macitentan group (13 patients)): 30.2%
Peripheral edema considered related to study treatment (DB phase, macitentan group, 4 patients): 9.3%
Headache considered related to study treatment [3]: 16.3%
Patients with severe AEs [3]: 16.3%
Deaths considered related to macitentan treatment by the investigator (OL and OLE): None of the deaths were considered by the investigator to be related
Patients who died (OL phase): 4 patients
Reason for death, Hepatocellular Carcinoma [4]: 1 (1.2) n (%)
Reason for death, Pneumonia [4]: 1 (1.2) n (%)
Reason for death, Pulmonary Arterial Hypertension [4]: 1 (1.2) n (%)
Reason for death, Subdural Haematoma [4]: 1 (1.2) n (%)
Total deaths [4]: 4 (4.8) n (%)
Macitentan-treated patients who died (across OL phase (and after end of its follow-up) and ongoing OLE phase): 7 patients
AE leading to premature discontinuation of study treatment, Alveolitis [5]: 1 (1.2) n(%)
AE leading to premature discontinuation of study treatment, Anaemia [5]: 2 (2.4) n(%)
AE leading to premature discontinuation of study treatment, Ascites [5]: 1 (1.2) n(%)
AE leading to premature discontinuation of study treatment, Diarrhoea [5]: 1 (1.2) n(%)
AE leading to premature discontinuation of study treatment, Hypersensitivity [5]: 1 (1.2) n(%)
AE leading to premature discontinuation of study treatment, Liver function test increased [5]: 1 (1.2) n(%)
AE leading to premature discontinuation of study treatment, Oedema peripheral [5]: 2 (2.4) n(%)
AE leading to premature discontinuation of study treatment, Pneumonia [5]: 1 (1.2) n(%)
AE leading to premature discontinuation of study treatment, Pulmonary arterial hypertension [5]: 1 (1.2) n(%)
AEs leading to premature discontinuation of study treatment, Subjects with at least one AE [5]: 10 (11.9) n(%)
AEs of special interest Anemia, Anaemia postoperative [5]: 1 (1.2) n (%)
AEs of special interest Anemia, Haematocrit decreased [5]: 1 (1.2) n (%)
AEs of special interest Anemia, Subjects with atleast one AE [5]: 22 (26.2) n (%)
AEs of special interest Edema and fluid retention, Fluid overload [5]: 1 (1.2) n (%)
AEs of special interest Edema and fluid retention, Fluid retention [5]: 1 (1.2) n (%)
AEs of special interest Edema and fluid retention, Generalised oedema [5]: 1 (1.2) n (%)
AEs of special interest Edema and fluid retention, Joint swelling [5]: 1 (1.2) n (%)
AEs of special interest Edema and fluid retention, Localised oedema [5]: 1 (1.2) n (%)
AEs of special interest Edema and fluid retention, Peripheral swelling [5]: 2 (2.4) n (%)
AEs of special interest Edema and fluid retention, Subjects with atleast one AE [5]: 26 (31.0) n (%)
AEs of special interest Edema and fluid retention, Swelling [5]: 1 (1.2) n (%)
AEs of special interest Hepatic disorders, Ammonia increased [5]: 2 (2.4) n (%)
